The values that follow are results of earlier work, collected in US11529445B2, “Methods and apparatus for kidney dialysis and extracorporeal detoxification” (HIBAR Microsciences LLC, priority 2013, dated 2022).

The structures appear in SMILES notation.

The series concerns Connexin-43. Conditions: cell culture models; concentrations commonly found among ESRD patients.

As to `Cc1ccc(O)cc1` [p-cresol], the “degradation of Connexin-43 within cardiac gap junctions” value is “dose-dependent degradation of Connexin-43”.
